Read-outs that look alike come from different tables or passages of the source.
Legend:
Assay type in all cases: cell-based
HepG2 (liver cancer) = assay: Antiproliferative activity (CCK-8 cell viability), HepG2; details: Homo sapiens, 72 h, read-out: Antiproliferative activity in cancerous cells, HepG2 (inhibition of cell growth); for inhibition at 3.3 µM: Compound concentration: 3.3 μM; for inhibition at 10 µM: Compound concentration: 10 μM; for inhibition at 30 µM: Compound concentration: 30 μM
Summary of the method: (§1)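 Cells grown in DMEM (HepG2, SW480), MEM (HeLa) or F-12K (A549), each with 10% FBS, then exposed to compound at 3.3, 10 or 30 μM for 72 h at 37 °C. CCK-8 absorbance at 450 nm; viability expressed as percent of DMSO-treated cells, graded as growth inhibition bands.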

HeLa (cervical cancer) = assay: Antiproliferative activity (CCK-8 cell viability), HeLa; details: Homo sapiens, 72 h, read-out: Antiproliferative activity in cancerous cells, HELA (inhibition of cell growth); for inhibition at 3.3 µM: Compound concentration: 3.3 μM; for inhibition at 10 µM: Compound concentration: 10 μM; for inhibition at 30 µM: Compound concentration: 30 μM
Summary of the method: as §1

[1] = system: A431 (epidermoid carcinoma); assay: Antiproliferative activity (CCK-8 cell viability), A431; details: Homo sapiens, 72 h, read-out: Antiproliferative activity in cancerous cells, A431 (inhibition of cell growth); for inhibition at 3.3 µM: A-431, Compound concentration: 3.3 μM; for inhibition at 10 µM: A-431, Compound concentration: 10 μM; for inhibition at 30 µM: A-431, Compound concentration: 30 μM
Summary of the method: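 A431 epidermoid carcinoma cells grown in DMEM with 10% FBS were plated at 2,000-5,000 cells/well in 96-well plates. After attachment they were exposed to compound at 3.3 μM, 10 μM, or 30 μM for 72 h at 37° C. Viability was then assessed by CCK-8 against DMSO vehicle-treated wells.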

SW480 (colon cancer) = assay: Antiproliferative activity (CCK-8 cell viability), SW480; details: Homo sapiens, 72 h; for inhibition at 3.3 µM: Compound concentration: 3.3 μM; for inhibition at 10 µM: Compound concentration: 10 μM; for inhibition at 30 µM: Compound concentration: 30 μM
Summary of the method: as §1

[2] = system: MDA-MB-231 (breast cancer); assay: Antiproliferative activity (CCK-8 cell viability), MDA-MB-231; details: Homo sapiens, 72 h; for inhibition at 3.3 µM: Compound concentration: 3.3 μM; for inhibition at 10 µM: Compound concentration: 10 μM; for inhibition at 30 µM: Compound concentration: 30 μM
Summary of the method: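 MDA-MB-231 breast cancer cells, grown in DMEM with 10% FBS, were plated in 96-well plates at 2,000-5,000 cells/well. Once attached, they were exposed to compound and incubated at 37° C. for 72 h. Viability was then measured with CCK-8 (10 μL per well, 4 h at 37° C.) by absorbance at 450 nm, relative to DMSO vehicle wells.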

[3] = system: B16F10 (malignant melanoma); assay: Antiproliferative activity (CCK-8 cell viability), B16F10; details: Mus musculus, 72 h, read-out: Antiproliferative activity in cancerous cells, B16F10 (inhibition of cell growth); for inhibition at 3.3 µM: B16-F10, Compound concentration: 3.3 μM; for inhibition at 10 µM: B16-F10, Compound concentration: 10 μM; for inhibition at 30 µM: B16-F10, Compound concentration: 30 μM
Summary of the method: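 B16F10 melanoma cells grown in DMEM with 10% FBS were plated in 96-well plates at 2,000-5,000 cells/well. After attachment they were exposed to compound in medium for 72 h at 37° C. CCK-8 solution (10 μL) was then added, and after 4 h at 37° C absorbance was read at 450 nm.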

[4] = system: A549 (lung adenocarcinoma); assay: Antiproliferative activity (CCK-8 cell viability), A549; details: Homo sapiens, 72 h; for inhibition at 3.3 µM: Compound concentration: 3.3 μM; for inhibition at 10 µM: Compound concentration: 10 μM; for inhibition at 30 µM: Compound concentration: 30 μM
Summary of the method: as §1

[5] = read-out: Antiproliferative activity in cancerous cells, SW480 (inhibition of cell growth)
[6] = read-out: Antiproliferative activity in cancerous cells, MDA-MB-231 (inhibition of cell growth)
[7] = read-out: Antiproliferative activity in cancerous cells, A549 (inhibition of cell growth)

SMILES	inhibition at 3.3 µM (HepG2 (liver cancer)) [%]	inhibition at 10 µM (HepG2 (liver cancer)) [%]	inhibition at 3.3 µM (HeLa (cervical cancer)) [%]	inhibition at 10 µM (HeLa (cervical cancer)) [%]	inhibition at 3.3 µM [1] [%]	inhibition at 10 µM [1] [%]	inhibition at 3.3 µM (SW480 (colon cancer); [5]) [%]	inhibition at 10 µM (SW480 (colon cancer); [5]) [%]	inhibition at 3.3 µM [2, 6] [%]	inhibition at 10 µM [2, 6] [%]	inhibition at 3.3 µM [3] [%]	inhibition at 10 µM [3] [%]	inhibition at 3.3 µM [4, 7] [%]	inhibition at 10 µM [4, 7] [%]	also measured
CC1=C(CC(=O)O)c2cc(F)ccc2/C1=C\c1ccc(CSc2ccc(F)cc2)cc1 [B45, (Z)-2-(5-Fluoro-1-(4-(((4-fluorophenyl)thio)methyl)benzylidene)-2-methyl-1H-inden-3-yl)acetic acid]	< 30	≥ 50	< 30	≥ 50	< 30	30 to 50	< 30	≥ 50	< 30	< 30	< 30	≥ 50	< 30	< 30	inhibition at 30 µM ([2]; read-out: Antiproliferative activity in cancerous cells, MDA-MB-231): < 30%
CC1=C(CC(=O)O)c2cc(F)ccc2/C1=C\c1ccc(Oc2ccc(F)c(Cl)c2)cc1 [C54, (Z)-2-(1-(4-(3-Chloro-4-fluorophenoxy)benzylidene)-5-fluoro-2-methyl-1H-inden-3-yl)acetic acid]	< 30	30 to 50	< 30	≥ 50	≥ 50	≥ 50	< 30	≥ 50	< 30	≥ 50	≥ 50	≥ 50	< 30	< 30	inhibition at 30 µM ([4]; read-out: Antiproliferative activity in cancerous cells, A549): < 30%
CC1=C(CC(=O)O)c2cc(F)c(F)cc2/C1=C/c1ccc(Oc2ccc(F)cc2)cc1 [E23, (E)-2-(5,6-Difluoro-1-(4-(4-fluorophenoxy)benzylidene)-2-methyl-1H-inden-3-yl)acetic acid]	< 30	< 30	30 to 50	≥ 50	30 to 50	≥ 50	< 30	≥ 50	≥ 50	≥ 50	< 30	≥ 50	< 30	< 30	inhibition at 30 µM (HepG2 (liver cancer)): ≥ 50%; inhibition at 30 µM (HeLa (cervical cancer)): ≥ 50%; inhibition at 30 µM [1]: ≥ 50%; inhibition at 30 µM (SW480 (colon cancer); [5]): ≥ 50%; inhibition at 30 µM [2, 6]: ≥ 50%; inhibition at 30 µM [3]: ≥ 50%; inhibition at 30 µM [4, 7]: ≥ 50%
CC1=C(CC(=O)O)c2c(F)cc(F)cc2/C1=C\c1ccc(C(F)(F)F)cc1 [D5, (Z)-2-(4,6-Difluoro-2-methyl-1-(4-(trifluoromethyl)benzylidene)-1H-inden-3-yl)-acetic acid]	< 30	< 30	< 30	≥ 50	≥ 50	≥ 50	< 30	< 30	< 30	30 to 50	< 30	≥ 50	30 to 50	≥ 50	inhibition at 30 µM (HepG2 (liver cancer)): 30 to 50%; inhibition at 30 µM (HeLa (cervical cancer)): ≥ 50%; inhibition at 30 µM [1]: ≥ 50%; inhibition at 30 µM (SW480 (colon cancer); [5]): < 30%; inhibition at 30 µM [2, 6]: ≥ 50%; inhibition at 30 µM [3]: ≥ 50%; inhibition at 30 µM [4, 7]: ≥ 50%
COc1ccc2c(c1)C(CC(=O)O)=C(C)/C2=C/c1ccc(Oc2cccc(Cl)c2)cc1 [C73, (Z)-2-(1-(4-(3-Chlorophenoxy)benzylidene)-5-methoxy-2-methyl-1H-inden-3-yl)acetic acid]	< 30	< 30	30 to 50	≥ 50	30 to 50	≥ 50	< 30	< 30	< 30	30 to 50	30 to 50	≥ 50	< 30	< 30	inhibition at 30 µM (SW480 (colon cancer); read-out: Antiproliferative activity in cancerous cells, SW480): 30 to 50%
CC1=C(CC(=O)O)c2cc(F)ccc2/C1=C\c1cccc(Oc2ccc(I)cc2)c1 [C100, (Z)-2-(5-Fluoro-1-(3-(4-iodophenoxy)benzylidene)-2-methyl-1H-inden-3-yl)acetic acid]	< 30	≥ 50	< 30	≥ 50	< 30	< 30	< 30	< 30	< 30	< 30	< 30	30 to 50	< 30	30 to 50	
CC1=C(CC(=O)O)c2cc(F)ccc2/C1=C\c1ccc(COCc2ccc(Cl)cc2)cc1 [B103, (Z)-2-(1-(4-(((4-Chlorobenzyl)oxy)methyl)benzylidene)-5-fluoro-2-methyl-1H-inden-3-yl)acetic acid]	30 to 50	≥ 50	< 30	≥ 50	≥ 50	≥ 50	< 30	≥ 50	30 to 50	≥ 50	< 30	≥ 50	< 30	≥ 50	
CCc1ccc2c(c1)C(CC(=O)O)=C(C)/C2=C/c1cccc(COc2ccc(F)cc2)c1 [B71, (Z)-2-(5-Ethyl-1-(3-((4-fluorophenoxy)methyl)benzylidene)-2-methyl-1H-inden-3-yl)acetic acid]	< 30	< 30	< 30	≥ 50	≥ 50	≥ 50	< 30	< 30	< 30	≥ 50	< 30	≥ 50	30 to 50	≥ 50	
CC1=C(CC(=O)O)c2cc(Cl)ccc2/C1=C\c1ccc(Oc2ccc(Cl)cc2)cc1 [C62, (Z)-2-(5-Chloro-1-(4-(4-chlorophenoxy)benzylidene)-2-methyl-1H-inden-3-yl)acetic acid]	≥ 50	≥ 50	30 to 50	≥ 50	30 to 50	≥ 50	< 30	30 to 50	< 30	< 30	< 30	≥ 50	30 to 50	≥ 50	

Reference: patent US20260184663A1, “INDENE COMPOUNDS, PHARMACEUTICAL COMPOSITIONS THEREOF, AND THEIR THERAPEUTIC APPLICATIONS” (NucMito Pharmaceuticals co. Ltd., priority 2022, published 2026)
